Reference: US8697694B2, “Substituted pyridine and pyrimidine derivatives and their use in treating viral infections” (priority 2008, dated 2014)

system: HCV replicon cells; experiment: Cell-based HCV replicon assay (replicon RNA level by real time PCR, Taqman); conditions: Hepatitis C virus, 72 h, HCV replicon cells, harvested day 3, replicon RNA by real time PCR; given as number; read-out: EC90 (μM) range
Procedure, shortened: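 Readout: ΔCT between NS5B replicon RNA and GAPDH by real-time RT-PCR in lysates harvested on day 3, fitted sigmoidally; EC50 at ΔCT=1, EC90 at ΔCT=3.2. Compounds tested at ten 2-fold dilutions from 25 μM to 1 μM start, 10% FBS, 0.5% DMSO.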

In the case of Cc1nc(NCCCF)nc(N[C@@H]2C[C@H](CO)[C@@H](O)[C@H]2O)c1-c1nc2ccccc2s1 [Example 127], the EC90 was 0.7 µM.

same assay, conditions: Hepatitis C virus, 72 h, HCV replicon cells, harvested day 3, replicon RNA by real time PCR; reported as range class; read-out: EC90 (μM) range

Nc1nc(Cl)c(-c2cc3cc(F)c(F)cc3o2)c(N[C@@H]2C[C@H](CO)[C@@H](O)[C@H]2O)n1 [Example 169] and N#Cc1ccc2oc(-c3c(Cl)nc(N)nc3N[C@@H]3C[C@H](CO)[C@@H](O)[C@H]3O)cc2c1 [Example 171] cannot be ordered by EC90: greater than 5 µM for the first, greater than 5 µM for the second.

CCOc1cc2cc(-c3c(Cl)nc(NCCOC)nc3N[C@@H]3C[C@H](CO)[C@@H](O)[C@H]3O)oc2c(C)n1 [Example 21] and COCc1cc2cc(-c3c(Cl)nc(N)nc3N[C@@H]3C[C@H](CO)[C@@H](O)[C@H]3O)oc2c(C)n1 [Example 311] cannot be ordered by EC90: less than 0.5 µM for the first, less than 0.5 µM for the second.

First: Nc1nc(Cl)c(-c2ccccn2)c(N[C@@H]2C[C@H](CO)[C@@H](O)[C@H]2O)n1 [Example 157]
Second: Nc1nc(Cl)c(-c2cc3ccncc3o2)c(N[C@@H]2C[C@H](CO)[C@@H](O)[C@H]2O)n1 [Example 9]
The EC90 of the first is higher: greater than 5 µM for the first, less than 0.5 µM for the second.

OC[C@H]1C[C@@H](Nc2nc(NCC(F)(F)F)nc(Cl)c2-c2nc3ccccc3s2)[C@H](O)[C@@H]1O [Example 124] and Cc1nc(NCCC(F)(F)F)nc(N[C@@H]2C[C@H](CO)[C@@H](O)[C@H]2O)c1-c1nc2ccccc2s1 [Example 218] cannot be ordered by EC90: less than 0.5 µM for the first, less than 0.5 µM for the second.

CCOc1ccc2nc(-c3c(Cl)nc(N)nc3N[C@@H]3C[C@H](CO)[C@H]4OC(C)(C)O[C@H]43)sc2c1 [Example 195] and COc1ccc2nc(-c3c(Cl)nc(N)nc3N[C@@H]3C[C@H](CO)[C@@H](O)[C@H]3O)sc2c1 [Example 181] cannot be ordered by EC90: less than 0.5 µM for the first, less than 0.5 µM for the second.

Compared with Cc1nccc2cc(-c3c(Cl)nc(N)nc3N[C@@H]3C[C@H](CO)[C@@H](O)[C@H]3O)oc12 [Example 305], NC(=O)c1ccc2oc(-c3c(Cl)nc(N)nc3N[C@@H]3C[C@H](CO)[C@@H](O)[C@H]3O)cc2c1 [Example 173] is higher in EC90: less than 0.5 µM for the first, greater than 5 µM for the second.

Going from CN(C)C(=O)c1ccc2cc(-c3c(Cl)nc(N)nc3N[C@@H]3C[C@H](CO)[C@@H](O)[C@H]3O)oc2c1 [Example 176] to CNc1ccc2nc(-c3c(Cl)nc(N)nc3N[C@@H]3C[C@H](CO)[C@@H](O)[C@H]3O)sc2c1 [Example 196], the EC90 falls from greater than 5 µM to less than 0.5 µM.

Going from Cc1nc(NCC2CC2)nc(N[C@@H]2C[C@H](CO)[C@@H](O)[C@H]2O)c1-c1cc2cc(-c3cccs3)nc(C)c2o1 [Example 43] to CO[C@@H](C)CNc1nc(C)c(-c2nc3ccccc3s2)c(N[C@@H]2C[C@H](CO)[C@@H](O)[C@H]2O)n1 [Example 229], the EC90 falls from greater than 5 µM to less than 0.5 µM.

First: Nc1nc(Cl)c(-c2nc3cc(C(F)(F)F)ccc3s2)c(N[C@@H]2C[C@H](CO)[C@@H](O)[C@H]2O)n1 [Example 112]
Second: Cc1nc(N(C)C)nc(N[C@@H]2C[C@H](CO)[C@@H](O)[C@H]2O)c1-c1nc2ccccc2s1 [Example 313]
The EC90 of the first is higher: 0.5 to 5 µM for the first, less than 0.5 µM for the second.

With Cc1nc(NCCO)nc(N[C@@H]2C[C@H](CO)[C@@H](O)[C@H]2O)c1-c1nc2ccccc2s1 [Example 210] the EC90 was less than 0.5 µM.

same assay, conditions: Hepatitis C virus, 72 h, HCV replicon cells, harvested on day 3, replicon RNA by real time PCR; calculated EC90 reported as range class; read-out: EC90 (μM) range

First: Cc1nc(NCC2CC2)nc(N[C@@H]2C[C@H](CO)[C@H]3OC(C)(C)O[C@H]32)c1-c1cc2cc(C(F)(F)F)ncc2o1 [Example 141]
Second: COc1cc(CNc2nc(C)c(-c3cc4cc(OC)nc(C)c4o3)c(N[C@@H]3C[C@H](CO)[C@H]4OC(C)(C)O[C@H]43)n2)cc(OC)c1 [Example 347]
The EC90 of the first is higher: 0.5 to 5 µM for the first, less than 0.5 µM for the second.

COc1ccc(CNc2nc(C)c(-c3nc4ccccc4s3)c(N[C@@H]3C[C@H](CO)[C@@H](O)[C@H]3O)n2)cc1OC [Example 709] and OC[C@H]1C[C@@H](Nc2nc(NCc3cccc(F)c3)nc(Cl)c2-c2nc3ccccc3s2)[C@H](O)[C@@H]1O [Example 234] cannot be ordered by EC90: less than 0.5 µM for the first, less than 0.5 µM for the second.

Going from OC[C@H]1C[C@@H](Nc2nc(NC3CCNCC3)nc(Cl)c2-c2nc3ccccc3s2)[C@H](O)[C@@H]1O [Example 510] to CCCCCCNc1nc(Cl)c(-c2nc3ccccc3s2)c(N[C@@H]2C[C@H](CO)[C@@H](O)[C@H]2O)n1 [Example 454], the EC90 falls from greater than 5 µM to less than 0.5 µM.

CCc1cc2cc(-c3c(C)nc(NCc4nccs4)nc3N[C@@H]3C[C@H](CO)[C@@H](O)[C@H]3O)oc2cn1 [Example 342] and CCCCCNc1nc(C)c(-c2cc3cc(CC)ncc3o2)c(N[C@@H]2C[C@H](CO)[C@@H](O)[C@H]2O)n1 [Example 514] cannot be ordered by EC90: less than 0.5 µM for the first, less than 0.5 µM for the second.

Going from Cc1nc(NC(CF)CF)nc(N[C@@H]2C[C@H](CO)[C@@H](O)[C@H]2O)c1-c1nc2ccccc2s1 [Example 130] to CCCCNc1nc(C)c(-c2nc3ccccc3s2)c(N[C@@H]2C[C@H](CO)[C@@H](O)[C@H]2O)n1 [Example 434], the EC90 falls from greater than 5 µM to less than 0.5 µM.

Cc1nc(NCc2ncccn2)nc(N[C@@H]2C[C@H](CO)[C@@H](O)[C@H]2O)c1-c1nc2ccccc2s1 [Example 717] and OC[C@H]1C[C@@H](Nc2nc(NCc3ccc(F)cc3)nc(Cl)c2-c2nc3ccccc3s2)[C@H](O)[C@@H]1O [Example 251] cannot be ordered by EC90: less than 0.5 µM for the first, less than 0.5 µM for the second.

Cc1nc(NCCNS(C)(=O)=O)nc(N[C@@H]2C[C@H](CO)[C@H]3OC(C)(C)O[C@H]32)c1-c1nc2ccccc2s1 [Example 257] and Cc1ccsc1CNc1nc(C)c(-c2nc3ccccc3s2)c(N[C@@H]2C[C@H](CO)[C@H]3OC(C)(C)O[C@H]32)n1 [Example 476] cannot be ordered by EC90: less than 0.5 µM for the first, less than 0.5 µM for the second.

First: CCc1cc2cc(-c3c(Cl)nc(NC(C)C)nc3N[C@@H]3C[C@H](CO)[C@@H](O)[C@H]3O)oc2cn1 [Example 502]
Second: Cc1nc(NCc2cccc[n+]2[O-])nc(N[C@@H]2C[C@H](CO)[C@H]3OC(C)(C)O[C@H]32)c1-c1nc2ccccc2s1 [Example 481]
The EC90 of the first is lower: less than 0.5 µM for the first, greater than 5 µM for the second.

same assay, conditions: Hepatitis C virus, 72 h, HCV replicon cells, replicon RNA level by real time PCR (Taqman), day 3; calculated EC90; read-out: EC90 (μM) range

With Cc1nc(NCCc2ccc(C(C)(C)C)cc2)nc(N[C@@H]2C[C@H](CO)[C@H]3OC(C)(C)O[C@H]32)c1-c1nc2cnccc2s1 [Example 2011] the EC90 was greater than 5 µM.

same assay, conditions: Hepatitis C virus, 72 h, HCV replicon cells, replicon RNA level by real time PCR (Taqman), harvested on day 3; calculated EC90 reported as range class; read-out: EC90 (μM) range

Compared with CCOCCNc1nc(C)c(-c2nc3cc(OC(F)F)c(OC(F)F)cc3s2)c(N[C@@H]2C[C@H](CO)[C@H]3OC(C)(C)O[C@H]32)n1 [Example 1001], COc1cc(CNc2nc(C)c(-c3nc4cnccc4s3)c(N[C@@H]3C[C@H](CO)[C@@H](O)[C@H]3O)n2)cc(OC)c1 [Example 537] is lower in EC90: greater than 5 µM for the first, less than 0.5 µM for the second.

Compared with Cc1nc(NCc2cccc(CN(C)C)c2)nc(N[C@@H]2C[C@H](CO)[C@@H](O)[C@H]2O)c1-c1nc2ccccc2s1 [Example 1119], Cc1nc(NCc2ccccc2O)nc(N[C@@H]2C[C@H](CO)[C@@H](O)[C@H]2O)c1-c1nc2ccccc2s1 [Example 1220] is lower in EC90: 0.5 to 5 µM for the first, less than 0.5 µM for the second.

CCc1cc2cc(-c3c(C)nc(NC)nc3N[C@@H]3C[C@H](CO)[C@@H](O)[C@H]3O)oc2cn1 [Example 527] and Cc1cnc(CNc2nc(C)c(-c3nc4ccccc4s3)c(N[C@@H]3C[C@H](CO)[C@@H](O)[C@H]3O)n2)s1 [Example 1204] cannot be ordered by EC90: less than 0.5 µM for the first, less than 0.5 µM for the second.

OC[C@H]1C[C@@H](Nc2nc(NCC(F)(F)F)ncc2-c2nc3ccccc3s2)[C@H](O)[C@@H]1O [Example 1058] and Cc1nc(NC(C)c2ccco2)nc(N[C@@H]2C[C@H](CO)[C@@H](O)[C@H]2O)c1-c1nc2ccccc2s1 (some centres unmarked) [Example 1102] fall in the same range of EC90: 0.5 to 5 µM for the first, 0.5 to 5 µM for the second.

Cc1nc(NC2CC2)nc(N[C@@H]2C[C@H](CO)[C@@H](O)[C@H]2O)c1-c1nc2cnccc2s1 [Example 534] and Cc1ccc([C@@H](C)Nc2nc(C)c(-c3nc4c(C)nccc4s3)c(N[C@@H]3C[C@H](CO)[C@@H](O)[C@H]3O)n2)cc1 [Example 1320] cannot be ordered by EC90: less than 0.5 µM for the first, less than 0.5 µM for the second.

COc1cccc2sc(-c3c(C)nc(N[C@H](C)c4ccc(C)cc4)nc3N[C@@H]3C[C@H](CO)[C@@H](O)[C@H]3O)nc12 [Example 1068] gave an EC90 of 0.5 to 5 µM.

same assay, conditions: Hepatitis C virus, 72 h, HCV replicon cells, replicon RNA level by real time PCR, harvested day 3; read-out: EC90 (μM) range

Cc1nc(N[C@H](C)c2ccc(-n3cccn3)cc2)nc(N[C@@H]2C[C@H](CO)[C@@H](O)[C@H]2O)c1-c1nc2c(C)nccc2s1 [Example 1355] and Cc1nc(N[C@@H](c2ccsc2)C(F)(F)F)nc(N[C@@H]2C[C@H](CO)[C@@H](O)[C@H]2O)c1-c1nc2c(C)nccc2s1 [Example 1361] cannot be ordered by EC90: less than 0.5 µM for the first, less than 0.5 µM for the second.

CCCc1nccc2sc(-c3c(C)nc(N[C@H](C)C(F)(F)F)nc3N[C@@H]3C[C@H](CO)[C@@H](O)[C@H]3O)nc12 [Example 1380] and CCCc1nccc2sc(-c3c(C)nc(NCC4CC4)nc3N[C@@H]3C[C@H](CO)[C@@H](O)[C@H]3O)nc12 [Example 1369] cannot be ordered by EC90: less than 0.5 µM for the first, less than 0.5 µM for the second.

First: COc1ccc(CCNc2nc(C)c(-c3nc4cnccc4s3)c(N[C@@H]3C[C@H](CO)[C@@H](O)[C@H]3O)n2)cc1Cl [Example 1913]
Second: Cc1nc(NCc2cc3cn[nH]c3cc2F)nc(N[C@@H]2C[C@H](CO)[C@@H](O)[C@H]2O)c1-c1nc2ccccc2s1 [Example 1909]
The EC90 of the first is higher: 0.5 to 5 µM for the first, less than 0.5 µM for the second.

Going from Cc1nc(NCC(F)(F)F)nc(NC2CCN(C(=O)OC(C)(C)C)CC2)c1-c1nc2ccccc2s1 [Example 1514] to CCN(C[C@H]1C[C@@H](Nc2nc(NCC(F)(F)F)nc(C)c2-c2nc3ccccc3s2)[C@H](O)[C@@H]1O)S(C)(=O)=O [Example 1392], the EC90 falls from greater than 5 µM to less than 0.5 µM.

Cc1nc(NCC2CC2)nc(NC[C@@H]2CC2(CO)CO)c1-c1nc2ccccc2s1 [Example 1617] and Cc1nc(N[C@H](c2cccs2)C(F)(F)F)nc(N[C@@H]2C[C@H](CO)[C@@H](O)[C@H]2O)c1-c1nc2ccccc2s1 [Example 1803] cannot be ordered by EC90: greater than 5 µM for the first, greater than 5 µM for the second.

Work on Cc1nc(N[C@H](C)c2ccc(OC(F)(F)F)cc2)nc(N[C@@H]2C[C@H](C(C)O)[C@@H](O)[C@H]2O)c1-c1nc2ccccc2s1 (single isomer, unassigned) [Example 1645] yielded an EC90 of 0.5 to 5 µM.
